{"source": "paper PMC4233638", "about": "“Proanthocyanidin synthesis in Theobroma cacao: genes encoding anthocyanidin synthase, anthocyanidin reductase, and leucoanthocyanidin reductase” (BMC Plant Biology, 2013)", "molecular_target": "T1, TcLAR (Theobroma cacao, UniProt D3XFG4)", "T1 construct": "gene LAR; full-length ORF (361 residues, 1,083 bp) in pET-21a, C-terminal 6xHis tag kept, E. coli Rosetta (DE3), purified by Magne-His", "T1 sequence (D3XFG4 entry or part of it)": "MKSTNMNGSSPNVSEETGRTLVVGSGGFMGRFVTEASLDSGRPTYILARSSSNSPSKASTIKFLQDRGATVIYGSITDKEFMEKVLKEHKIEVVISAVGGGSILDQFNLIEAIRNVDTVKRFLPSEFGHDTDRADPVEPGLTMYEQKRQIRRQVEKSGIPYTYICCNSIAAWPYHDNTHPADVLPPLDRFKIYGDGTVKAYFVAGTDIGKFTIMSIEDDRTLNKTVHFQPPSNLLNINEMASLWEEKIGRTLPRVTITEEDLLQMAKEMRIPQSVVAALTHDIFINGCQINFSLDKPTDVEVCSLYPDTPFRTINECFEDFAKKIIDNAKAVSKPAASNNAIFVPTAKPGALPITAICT", "assay": "HPLC-UV and radioactivity detection of catechin product", "type": "biochemical", "conditions": "labelled compound (3H); 0.4 mM substrate, 0.5 mM NADPH, 100 mM potassium phosphate pH 7.0, 4 mM DTT, 10% glycerol, 30 C, 1 h", "data": [{"smiles": "Oc1cc(O)c2c(c1)O[C@H](c1ccc(O)c(O)c1)[C@@H](O)[C@H]2O", "note": "[leucocyanidin]", "values": [{"measurement": "HPLC-UV and radioactivity detection of catechin product", "result": "detected when TcLAR protein was incubated with ^3H -labeled leucocyanidin"}]}]}
